Reference: US20210108198A1, “APPLICATION OF COMPOUND OR TRADITIONAL CHINESE MEDICINE EXTRACT IN PREPARATION OF NUCLEIC ACID DELIVERY AGENT AND RELATED PRODUCTS THEREOF” (INSTITUTE OF BASIC MEDICAL SCIENCES CHINESE ACADEMY OF …, priority 2017, published 2021)
Entries after “also recorded” stand apart in the source; their conditions may differ.

Columns and labels:
[1] = system: A549 cell; assay: RT-qPCR detection of nucleic acid delivered by lipid into A549 cells; assay type: cell-based, human; conditions: double-stranded HJT-sRNA-m7 100 nM; reverse evaporation method; 12 hours; FIG. 99
Method: 3.1 NCI-N87 cell (gastric cancer cell), MRC-5 cell (lung fibroblast), A549 cell (lung cancer cell) were cultured to logarithmic growth phase, and then plated to a six-well plate at cell density of 1×10^6/2 mL medium/well; MRC-5 cell was cultured in Eagle's MEM medium (MEM, Gibco); A549 cell was cultured in Ham's F-12 medium (HyClone); NCI-N87 cell was cultured in RPMI-1640 medium (HyClone); followed by incubation overnight at 37° C., and the follow-up experiments were performed after the cells were attached to the walls.
4) Lipid nucleic acid mixture: the mixture of lipid and HJT-sRNA-m7 prepared from the step 2 were added into cells and mixed, and the final concentration of RNA was kept at 200 nM.
3.3 After co-incubation with the small RNA for 3 hours, the cells were washed 2-3 times with PBS. The cells were harvested with TRIzol lysis buffer, and the total RNA was extracted. The abundance of small RNA that entered cells was detected by RT-qPCR, and the localization of RNA was detected by fluorescence in situ hybridization; protocols of each detection method were as follows:
3.3.1 RT-qPCR Detection of Small RNA (Taqman Probe Method)
3.3.2 RT-qPCR Detection of Small RNA (SYBR Green Dye Method)
Mixtures of soybean PC, lipid No. 11 (18:0/18:2) and lipid No. 12 (16:0/18:2), and various small RNA (see below Table 3) were prepared by the reverse evaporation method and then added into A549 cell line (the final concentration of sRNA was 200 nM); the negative control group (control) was directly added with the same concentration of sRNA; the positive control group (RNAimax) was transfected with Lipofectamine RNAimax (transfection reagent 6 μl/well). The abundance of sRNA in the cells was detected by Taqman probe after 3 hours, and the relative expression level of sRNA was calculated by 2-ΔCt method.
3.1.3 After co-incubation with cells for 12-24 hours, the cells were washed twice with PBS. The cells were harvested with TRIzol lysis buffer (purchased from Sigma-Aldrich), and total RNA was extracted. The abundance of HJT-sRNA-m7 that entered the cells was detected by RT-qPCR; the protocols were as follows:
4368813) was used to reverse transcribe sRNA to cDNA by stem-loop method (see, e.g. Real-time quantification of microRNAs by stem-loop RT-PCR, Nucleic Acids Res. 2005 Nov. 27; 33(20):e179, incorporated by reference herein).

[2] = system: A549 cells; assay: Confocal fluorescence microscopy of nucleic acid delivered by lipid in cells; assay type: cell-based, human; conditions: 4 μl lipid, boiling method; 6 hours of co-incubation
Method: Experimental materials: A549 cells (purchased from the Cell Center of the Chinese Academy of Medical Sciences), PGY-sRNA-6-Cy3 (purchased from Ribobio Biotechnology Co., Ltd.), lipid No. 41, Zeiss LSM780 (purchased from Zeiss, Germany), Alexa Fluor® 488 phalloidin (purchased from Invitrogen, USA), DAPI (purchased from Invitrogen, USA), paraformaldehyde (purchased from sigma, USA).
Experimental methods: PGY-sRNA-6-FAM was dissolved in 100 μl water, mixed with 4 μl lipid, and prepared by the boiling method. Then the mixture was dropped into A549 cells, and after 6 hours of co-incubation, the samples were washed three times with PBS, fixed with 4% paraformaldehyde, washed three times with PBS, stained with Alexa Fluor® 488 phalloidin for 30 min, washed 3 times with PBS, and stained with DAPI for 5 min, washed with PBS, and then sealed.
Experimental method: PGY-sRNA-6-FAM was dissolved in 100 μl water, and mixed with 4 μl lipid, and prepared by boiling method. Then, the mixture was dropped into A549 cells, and after 6 hours of co-incubation, the samples were washed three times with PBS, fixed with 4% paraformaldehyde, washed three times with PBS, stained with Alexa Fluor® 488 phalloidin for 30 min, washed 3 times with PBS, and stained with DAPI for 5 min, PBS washed, and then sealed.

[3] = In vivo delivery of single-stranded sRNA by single lipid via gavage (blood, stomach, small intestine, liver); parameters: species or system C57 mice; conditions: 10 μl lipid, 1 nmol each sRNA (PGY-sRNA-23/-26/-32), heating method, 6 hours or 12 hours after administration
Description: Tissues sampled: live/stomach/small intestine.

[4] = system: fibronectin protein expression in MRC-5 cells; assay: Western blot of fibronectin after lipid-mediated delivery of anti-fibrotic HJT-sRNA into TGF-β1 stimulated MRC-5 cells; assay type: cell-based; conditions: nucleic acid 400 nM; TGF-β1 3 ng/mL; preparation method not given; FIG. 102
Method: 3.3.1 MRC-5 cell (pulmonary embryonic fibroblast), and A549 cell (human lung adenocarcinoma cell) were cultured to logarithmic growth phase, and then plated into 12-well plates at a cell density of 6×10^5/1 mL medium/well; MRC-5 cells were cultured in Eagle's MEM medium (MEM, Gibco); A549 cells were cultured in Ham's F-12 medium (HyClone); followed by incubation overnight at 37° C., and the follow-up experiments were performed after the cells were attached to the walls.
4) Lipid nucleic acid mixture: the mixture of lipid and nucleic acid prepared from the step 2 were added into cells and mixed, and the final concentration of nucleic acid was 400 nM.
3.3.3 After 24 hours of treatment, the cells were stimulated with the stimulant (1 μg/mL poly (I:C) (P1530, Sigma-Aldrich) as double-stranded RNA viruses mimetics) or 3 ng/mL transforming growth factor TGFβ1 (Pepro Tech)). […]

[5] = system: A549 cells; assay: Digital PCR (ddPCR) detection of the efficiency of nucleic acid delivery by lipid; assay type: cell-based, human
Method: 2.2 Experimental method: the total cellular RNA was collected and extracted by TRIzol lysis buffer according to the above methods, and reverse transcribed to cDNA using High capacity cRNA Reverse Transcription Kit, and the cDNA from different groups was subject to digital PCR reaction. Refering to the QX200 Droplet Reader and QuantaSoft Software manual for the protocols, the results were analyzed using QuantaSoft software.
2.2 Experimental method: total RNA was collected and extracted by TRIzol lysis buffer according to the above method, and reverse transcribed to cDNA using High capacity cRNA Reverse Transcription Kit, and the cDNA from different groups was subjected to digital PCR reaction. Refer to the QX200 Droplet Reader and QuantaSoft Software manual for the protocols; the results were analyzed using QuantaSoft software.
2.2 Experimental method: Total RNA was collected and extracted by TRIzol lysis buffer according to the above method, and reverse transcribed to cDNA using TaqMan™ MicroRNA Reverse Transcription KitHigh, and the cDNA from different groups was subjected to digital PCR reaction. Refer to the QX200 Droplet Reader and QuantaSoft Software manual for the protocols; the results were analyzed using QuantaSoft software.
2.2 Experimental method: Total RNA was collected and extracted by TRIzol lysis buffer according to the above method, and reversed to cDNA using High capacity cRNA Reverse Transcription Kit, and the cDNA from different groups was subjected to digital PCR reaction. Refer to the QX200 Droplet Reader and QuantaSoft Software manual for the protocols; the results were analyzed using QuantaSoft software.

SMILES: CCCCCCCC/C=C\CCCCCCCCCCCC(=O)O[C@H](COC(=O)CCCCCCCCCCCCCCC)COP(=O)(O)OCCN [No. 40, (2-aminoethoxy)[(2R)-2-[(13Z)-docos-13-enoyloxy]-3-(hexadecanoyloxy)propoxy]phosphinic acid]
- delivery effect relative to RNAiMAX (real-time PCR) [1]: ½
- entry of PGY-sRNA-6-Cy3 observed under the confocal microscopy [2]: could effectively deliver single-stranded RNA into A549 cells
- entry of single-stranded small RNA into mouse blood (RT-qPCR) [3]: could effectively deliver sRNA single-stranded nucleic acid into mouse blood via oral administration; also recorded: the delivery effect was better than POPC and Lipofectamine RNAiMAX
- fibronectin protein expression after delivery of double-stranded HJT-sRNA-m7 (Western blot) [4]: to down-regulate fibronectin protein expression
- delivery of HJT-sRNA-m7 dsRNA (ddPCR) ([5]; boiling method, 6 hours): could effectively deliver HJT-sRNA-m7 dsRNA into A549 cells
- delivery of HJT-sRNA-m7 dsRNA (ddPCR) ([5]; reverse evaporation method, 6 hours (No. 39: 6 hours, 12 hours)): could effectively deliver HJT-sRNA-m7 dsRNA into A549 cells
